What was measured:
[1] = target: Protein kinase C gamma type (Homo sapiens) (UniProt P05129); assay: Inhibition of human PKCgamma assessed as enzyme activity at 1 uM relative to control; design: scale not given: the % may be the effect or the level left
[2] = target: Serine/threonine-protein kinase Chk1 (Homo sapiens) (UniProt O14757); assay: Inhibition of human CHK1 assessed as enzyme activity at 1 uM relative to control; design: scale not given: the % may be the effect or the level left
[3] = target: Serine/threonine-protein kinase tousled-like 2 (Homo sapiens) (UniProt Q86UE8); assay: Inhibition of human TLK2 assessed as enzyme activity at 1 uM relative to control; design: scale not given: the % may be the effect or the level left
Chain of Serine/threonine-protein kinase tousled-like 2 (Homo sapiens) (Q86UE8 whole entry, looked up): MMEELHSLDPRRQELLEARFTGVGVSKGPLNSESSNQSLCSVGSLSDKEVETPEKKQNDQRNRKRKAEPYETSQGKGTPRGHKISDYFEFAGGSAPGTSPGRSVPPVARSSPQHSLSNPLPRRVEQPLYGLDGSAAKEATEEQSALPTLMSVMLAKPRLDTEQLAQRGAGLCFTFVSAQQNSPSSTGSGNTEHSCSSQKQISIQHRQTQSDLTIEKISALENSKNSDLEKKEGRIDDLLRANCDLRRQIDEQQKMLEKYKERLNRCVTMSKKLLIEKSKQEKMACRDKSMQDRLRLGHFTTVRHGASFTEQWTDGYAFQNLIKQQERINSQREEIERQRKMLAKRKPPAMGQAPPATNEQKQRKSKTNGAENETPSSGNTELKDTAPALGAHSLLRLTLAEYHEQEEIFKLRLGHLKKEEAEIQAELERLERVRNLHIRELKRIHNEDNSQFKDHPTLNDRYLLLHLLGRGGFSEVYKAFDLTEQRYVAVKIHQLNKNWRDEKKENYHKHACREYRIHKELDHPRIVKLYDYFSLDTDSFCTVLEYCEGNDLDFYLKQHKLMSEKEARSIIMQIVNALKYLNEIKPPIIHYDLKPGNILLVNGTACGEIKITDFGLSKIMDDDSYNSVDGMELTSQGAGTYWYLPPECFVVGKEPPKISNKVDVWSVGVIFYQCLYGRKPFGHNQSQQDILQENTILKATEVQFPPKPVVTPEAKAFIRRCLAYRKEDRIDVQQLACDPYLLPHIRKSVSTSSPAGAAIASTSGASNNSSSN

[4] = target: Cytoplasmic tyrosine-protein kinase BMX (Homo sapiens) (UniProt P51813); assay: Inhibition of human Bmx assessed as enzyme activity at 1 uM relative to control; design: scale not given: the % may be the effect or the level left
Chain of Cytoplasmic tyrosine-protein kinase BMX (Homo sapiens) (P51813 whole entry): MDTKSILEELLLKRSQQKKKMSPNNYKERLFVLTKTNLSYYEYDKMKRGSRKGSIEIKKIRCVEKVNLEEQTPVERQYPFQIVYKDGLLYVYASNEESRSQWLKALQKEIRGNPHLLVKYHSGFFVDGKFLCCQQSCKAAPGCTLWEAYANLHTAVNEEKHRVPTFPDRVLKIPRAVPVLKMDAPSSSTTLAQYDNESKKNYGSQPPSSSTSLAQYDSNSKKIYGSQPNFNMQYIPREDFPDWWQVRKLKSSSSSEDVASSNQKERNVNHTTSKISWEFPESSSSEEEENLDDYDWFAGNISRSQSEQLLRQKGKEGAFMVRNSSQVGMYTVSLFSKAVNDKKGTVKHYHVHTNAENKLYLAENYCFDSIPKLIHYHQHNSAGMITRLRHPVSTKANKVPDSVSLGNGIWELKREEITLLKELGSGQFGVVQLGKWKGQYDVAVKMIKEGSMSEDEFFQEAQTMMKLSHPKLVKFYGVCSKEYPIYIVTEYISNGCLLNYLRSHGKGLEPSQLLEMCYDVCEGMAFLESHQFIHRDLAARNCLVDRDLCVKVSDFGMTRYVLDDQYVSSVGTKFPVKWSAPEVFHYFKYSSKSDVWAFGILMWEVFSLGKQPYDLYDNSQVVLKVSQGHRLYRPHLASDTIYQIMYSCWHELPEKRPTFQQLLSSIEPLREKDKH

[5] = target: Serine/threonine-protein kinase pim-2 (Homo sapiens) (UniProt Q9P1W9); assay: Inhibition of human Pim-2 assessed as enzyme activity at 1 uM relative to control; design: scale not given: the % may be the effect or the level left
Chain of Serine/threonine-protein kinase pim-2 (Homo sapiens) (Q9P1W9 whole entry, looked up): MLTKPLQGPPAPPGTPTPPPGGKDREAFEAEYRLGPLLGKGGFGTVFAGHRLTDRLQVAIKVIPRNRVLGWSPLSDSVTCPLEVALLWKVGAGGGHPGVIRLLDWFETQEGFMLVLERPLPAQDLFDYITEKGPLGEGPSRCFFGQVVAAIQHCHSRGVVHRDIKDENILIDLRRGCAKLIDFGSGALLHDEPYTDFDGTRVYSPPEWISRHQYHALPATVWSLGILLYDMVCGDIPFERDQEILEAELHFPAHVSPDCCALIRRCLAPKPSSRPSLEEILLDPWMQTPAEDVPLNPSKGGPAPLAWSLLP

[6] = Antitumor activity against human LOX cells expressing B-Raf V600E mutant xenografted in nude mouse assessed as tumor growth inhibition at 30 mg/kg qd for 4 days measured on day 3; assay type: functional; settings: read-out: TGI
[7] = target: Ribosomal protein S6 kinase alpha-4 (Homo sapiens) (UniProt O75676); assay: Inhibition of human MSK2 assessed as enzyme activity at 1 uM relative to control; design: scale not given: the % may be the effect or the level left
Chain of Ribosomal protein S6 kinase alpha-4 (Homo sapiens) (O75676 whole entry, looked up): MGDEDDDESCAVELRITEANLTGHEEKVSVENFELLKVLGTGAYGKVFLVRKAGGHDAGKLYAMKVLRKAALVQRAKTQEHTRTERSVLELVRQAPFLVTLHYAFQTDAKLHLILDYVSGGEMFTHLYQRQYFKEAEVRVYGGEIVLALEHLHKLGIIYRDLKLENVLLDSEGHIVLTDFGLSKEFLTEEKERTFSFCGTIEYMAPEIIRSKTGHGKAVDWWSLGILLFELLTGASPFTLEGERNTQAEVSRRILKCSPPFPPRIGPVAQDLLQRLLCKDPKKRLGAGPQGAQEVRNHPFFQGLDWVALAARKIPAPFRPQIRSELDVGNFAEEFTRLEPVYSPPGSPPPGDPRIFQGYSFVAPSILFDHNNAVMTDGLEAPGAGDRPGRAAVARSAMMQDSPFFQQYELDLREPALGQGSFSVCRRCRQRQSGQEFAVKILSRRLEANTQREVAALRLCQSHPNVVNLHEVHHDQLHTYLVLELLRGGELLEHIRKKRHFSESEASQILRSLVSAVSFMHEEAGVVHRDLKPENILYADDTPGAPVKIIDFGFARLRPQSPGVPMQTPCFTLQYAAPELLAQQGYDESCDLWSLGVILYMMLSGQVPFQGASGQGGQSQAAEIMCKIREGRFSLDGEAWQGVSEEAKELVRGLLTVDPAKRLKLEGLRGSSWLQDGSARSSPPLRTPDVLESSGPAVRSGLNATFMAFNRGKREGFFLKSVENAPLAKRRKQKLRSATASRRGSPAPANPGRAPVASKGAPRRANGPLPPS

Chain of Serine/threonine-protein kinase Chk1 (Homo sapiens) (O14757 whole entry): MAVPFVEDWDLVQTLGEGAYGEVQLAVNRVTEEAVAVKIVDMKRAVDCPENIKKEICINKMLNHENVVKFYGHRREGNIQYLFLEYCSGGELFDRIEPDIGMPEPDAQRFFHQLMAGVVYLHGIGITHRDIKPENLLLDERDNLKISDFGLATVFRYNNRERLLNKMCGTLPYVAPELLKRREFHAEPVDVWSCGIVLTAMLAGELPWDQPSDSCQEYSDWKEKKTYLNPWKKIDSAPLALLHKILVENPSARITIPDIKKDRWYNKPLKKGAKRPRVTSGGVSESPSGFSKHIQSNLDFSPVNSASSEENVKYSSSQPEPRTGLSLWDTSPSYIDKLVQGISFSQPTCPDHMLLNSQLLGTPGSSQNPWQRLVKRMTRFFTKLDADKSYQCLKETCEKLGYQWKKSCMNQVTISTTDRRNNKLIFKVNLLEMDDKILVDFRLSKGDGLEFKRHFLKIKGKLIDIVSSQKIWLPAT

- Activity [1]: 101%
- Activity [2]: 106%
- Activity [3]: 104%
- Activity [4]: 91.5%
- Activity [5]: 108%
- Activity [7]: 111%
Compound: CCCS(=O)(=O)Nc1cccc(Nc2ccc3ncn(C)c(=O)c3c2)c1C#N
- inhibition in vivo at 30 mg/kg [6]: 65%

From ChEMBL document CHEMBL3232845 (Bioorg Med Chem Lett, 2014)
